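Five concentrations, 48 hours, 96-well plates. GI50 is the concentration that inhibits growth by half.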 The source made the active and inactive calls. Cut-off read from the data, not from the text of the source: active = GI50 up to about 1.1 µM and inactive = higher.
Experiments:
Assay in all cases: NCI tumour cell line growth inhibition, 48 h
EKVX = test system: EKVX
Hs-578T = test system: Hs-578T
OVCAR-8 = test system: OVCAR-8
OVCAR-4 = test system: OVCAR-4
Malme-3M = test system: Malme-3M
K562 = test system: K562
PC-3 = test system: PC-3
MDA-N = test system: MDA-N
RXF 393 = test system: RXF 393
CAKI-1 = test system: CAKI-1
SF-295 = test system: SF-295
UO-31 = test system: UO-31
SR = test system: SR
SK-MEL-5 = test system: SK-MEL-5
M14 = test system: M14
A549 = test system: A549
SK-MEL-2 = test system: SK-MEL-2
NCI/ADR-RES = test system: NCI/ADR-RES
MDA-MB-231 = test system: MDA-MB-231
CCRF-CEM = test system: CCRF-CEM
SNB-19 = test system: SNB-19
NCI-H460 = test system: NCI-H460
TK-10 = test system: TK-10
MCF7 = test system: MCF7
KM12 = test system: KM12
HCT-15 = test system: HCT-15
SN12C = test system: SN12C
HOP-62 = test system: HOP-62
NCI-H23 = test system: NCI-H23
OVCAR-5 = test system: OVCAR-5
HCT-116 = test system: HCT-116
UACC-62 = test system: UACC-62
NCI-H226 = test system: NCI-H226
U-251 = test system: U-251
DU-145 = test system: DU-145
786-0 = test system: 786-0
SW-620 = test system: SW-620
RPMI-8226 = test system: RPMI-8226
SF-268 = test system: SF-268
UACC-257 = test system: UACC-257
NCI-H522 = test system: NCI-H522
LOX IMVI = test system: LOX IMVI
SK-MEL-28 = test system: SK-MEL-28
SF-539 = test system: SF-539
SNB-75 = test system: SNB-75
OVCAR-3 = test system: OVCAR-3
A498 = test system: A498
SK-OV-3 = test system: SK-OV-3
T47D = test system: T47D
HL-60 = test system: HL-60
ACHN = test system: ACHN
MDA-MB-435 = test system: MDA-MB-435
HCC 2998 = test system: HCC 2998
HT-29 = test system: HT-29
MOLT-4 = test system: MOLT-4
IGROV-1 = test system: IGROV-1
COLO 205 = test system: COLO 205

## O=C(CC(O)(C(F)(F)F)C(F)(F)F)C(CCCl)C(O)(C(F)(F)F)C(F)(F)F (configuration not stated)
EKVX
  GI50: 34.7 µM (inactive)
Hs-578T
  GI50: 67.6 µM (inactive)
OVCAR-8
  GI50: 27.9 µM (inactive)
OVCAR-4
  GI50: 49.2 µM (inactive)
Malme-3M
  GI50: 24.7 µM (inactive)
K562
  GI50: 39.7 µM (inactive)
PC-3
  GI50: 15.5 µM (inactive)
MDA-N
  GI50: > 100 µM (inactive)
RXF 393
  GI50: 21.1 µM (inactive)
CAKI-1
  GI50: 31.5 µM (inactive)
SF-295
  GI50: 33.5 µM (inactive)
UO-31
  GI50: 28.2 µM (inactive)
SR
  GI50: 27.3 µM (inactive)
SK-MEL-5
  GI50: 23.2 µM (inactive)
M14
  GI50: 40.6 µM (inactive)
A549
  GI50: 35.6 µM (inactive)
SK-MEL-2
  GI50: 36.2 µM (inactive)
NCI/ADR-RES
  GI50: 9.89 µM (inactive)
MDA-MB-231
  GI50: 65 µM (inactive)
CCRF-CEM
  GI50: 39.9 µM (inactive)
SNB-19
  GI50: 34.5 µM (inactive)
NCI-H460
  GI50: 15 µM (inactive)
TK-10
  GI50: 55.7 µM (inactive)
MCF7
  GI50: 85.1 µM (inactive)
KM12
  GI50: 42.3 µM (inactive)
HCT-15
  GI50: 34.3 µM
SN12C
  GI50: 18.9 µM (inactive)
HOP-62
  GI50: 33.3 µM (inactive)
NCI-H23
  GI50: 33.2 µM (inactive)
OVCAR-5
  GI50: 44.2 µM (inactive)
HCT-116
  GI50: 26.7 µM (inactive)
UACC-62
  GI50: 53.2 µM (inactive)
NCI-H226
  GI50: 23.5 µM (inactive)
U-251
  GI50: 35.6 µM (inactive)
DU-145
  GI50: 39.7 µM (inactive)
786-0
  GI50: 32.7 µM (inactive)
SW-620
  GI50: 51.6 µM (inactive)
RPMI-8226
  GI50: 16.7 µM (inactive)
SF-268
  GI50: 30.7 µM (inactive)
UACC-257
  GI50: 30.8 µM (inactive)
NCI-H522
  GI50: 34.4 µM (inactive)
LOX IMVI
  GI50: 55.7 µM (inactive)
SK-MEL-28
  GI50: 57.3 µM (inactive)
SF-539
  GI50: 54.8 µM (inactive)
SNB-75
  GI50: 24.9 µM (inactive)
OVCAR-3
  GI50: 11.5 µM (inactive)
A498
  GI50: 25.4 µM (inactive)
SK-OV-3
  GI50: 45.6 µM (inactive)
T47D
  GI50: 26 µM (inactive)
HL-60
  GI50: 16.6 µM (inactive)
ACHN
  GI50: 30.5 µM (inactive)
MDA-MB-435
  GI50: 62.7 µM (inactive)
HCC 2998
  GI50: 43.8 µM (inactive)
HT-29
  GI50: 23.8 µM (inactive)
MOLT-4
  GI50: 71.9 µM (inactive)
IGROV-1
  GI50: 52.5 µM (inactive)
COLO 205
  GI50: 13.8 µM (inactive)

Source: ChEMBL document CHEMBL1201862, “PubChem BioAssay data set” (2004)
